PubChem BioAssay (NCI)
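1) Cells in 96-well plates. 2) Compound, 48 h, 5 concentrations. 3) Linear interpolation between surrounding doses. 4) Unreached endpoint = highest concentration. TGI: concentration producing complete growth inhibition.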

What was measured:
Assay in all cases: NCI-60 cell line screen, 48 h
786-0 renal = system: 786-0 renal
A498 renal = system: A498 renal
A549 NSCLC = system: A549 NSCLC
ACHN renal = system: ACHN renal
CAKI-1 renal = system: CAKI-1 renal
CCRF-CEM leukemia = system: CCRF-CEM leukemia
COLO 205 colon = system: COLO 205 colon
DMS 114 small cell lung = system: DMS 114 small cell lung
DMS 273 small cell lung = system: DMS 273 small cell lung
EKVX NSCLC = system: EKVX NSCLC
HCC-2998 colon = system: HCC-2998 colon
HCT-116 colon = system: HCT-116 colon
HCT-15 colon = system: HCT-15 colon
HL-60(TB) leukemia = system: HL-60(TB) leukemia
HOP-18 NSCLC = system: HOP-18 NSCLC
HOP-62 NSCLC = system: HOP-62 NSCLC
HOP-92 NSCLC = system: HOP-92 NSCLC
HT29 colon = system: HT29 colon
IGROV1 ovarian = system: IGROV1 ovarian
K-562 leukemia = system: K-562 leukemia
KM12 colon = system: KM12 colon
KM20L2 colon = system: KM20L2 colon
LOX IMVI melanoma = system: LOX IMVI melanoma
LXFL 529 NSCLC = system: LXFL 529 NSCLC
M14 melanoma = system: M14 melanoma
M19-MEL melanoma = system: M19-MEL melanoma
MALME-3M melanoma = system: MALME-3M melanoma
MOLT-4 leukemia = system: MOLT-4 leukemia
NCI-H226 lung = system: NCI-H226 lung
NCI-H23 lung = system: NCI-H23 lung
NCI-H460 lung = system: NCI-H460 lung
NCI-H522 lung = system: NCI-H522 lung
OVCAR-3 ovarian = system: OVCAR-3 ovarian
OVCAR-4 ovarian = system: OVCAR-4 ovarian
OVCAR-5 ovarian = system: OVCAR-5 ovarian
OVCAR-8 ovarian = system: OVCAR-8 ovarian
RPMI-8226 leukemia = system: RPMI-8226 leukemia
RXF 393 renal = system: RXF 393 renal
SF-268 CNS = system: SF-268 CNS
SF-295 CNS = system: SF-295 CNS
SF-539 CNS = system: SF-539 CNS
SK-MEL-2 melanoma = system: SK-MEL-2 melanoma
SK-MEL-28 melanoma = system: SK-MEL-28 melanoma
SK-MEL-5 melanoma = system: SK-MEL-5 melanoma
SK-OV-3 ovarian = system: SK-OV-3 ovarian
SN12C renal = system: SN12C renal
SNB-19 CNS = system: SNB-19 CNS
SNB-75 CNS = system: SNB-75 CNS
SNB-78 CNS = system: SNB-78 CNS
SR leukemia = system: SR leukemia
SW-620 colon = system: SW-620 colon
TK-10 renal = system: TK-10 renal
U251 CNS = system: U251 CNS
UACC-257 melanoma = system: UACC-257 melanoma
UACC-62 melanoma = system: UACC-62 melanoma
UO-31 renal = system: UO-31 renal
XF 498 CNS = system: XF 498 CNS
DLD-1 colon = system: DLD-1 colon

Measured: TGI

CCCCc1c2c(nc3c1CCc1cc(C=O)c(N)nc1-3)/C(=C/c1ccccc1)CCC2
> 100 µM: 786-0 renal | ACHN renal | CAKI-1 renal | CCRF-CEM leukemia | DMS 114 small cell lung | DMS 273 small cell lung | EKVX NSCLC | HCT-116 colon | HCT-15 colon | HL-60(TB) leukemia | HOP-18 NSCLC | HOP-62 NSCLC | HOP-92 NSCLC | HT29 colon | IGROV1 ovarian | K-562 leukemia | KM12 colon | KM20L2 colon | LOX IMVI melanoma | LXFL 529 NSCLC | M14 melanoma | M19-MEL melanoma | MALME-3M melanoma | MOLT-4 leukemia | NCI-H226 lung | NCI-H23 lung | NCI-H460 lung | NCI-H522 lung | OVCAR-3 ovarian | OVCAR-4 ovarian | OVCAR-5 ovarian | OVCAR-8 ovarian | RPMI-8226 leukemia | RXF 393 renal | SF-268 CNS | SF-295 CNS | SF-539 CNS | SK-MEL-2 melanoma | SK-MEL-28 melanoma | SK-MEL-5 melanoma | SK-OV-3 ovarian | SN12C renal | SNB-19 CNS | SNB-75 CNS | SNB-78 CNS | SR leukemia | SW-620 colon | TK-10 renal | U251 CNS | UACC-257 melanoma | UACC-62 melanoma | UO-31 renal | XF 498 CNS
61.5 µM: A549 NSCLC
47.5 µM: A498 renal
32.3 µM: COLO 205 colon
45.1 µM: HCC-2998 colon

CCCCCCCCOCC(O)COC (stereo not given)
> 100 µM: 786-0 renal | A498 renal | A549 NSCLC | ACHN renal | CAKI-1 renal | CCRF-CEM leukemia | COLO 205 colon | DLD-1 colon | DMS 114 small cell lung | DMS 273 small cell lung | HCC-2998 colon | HCT-116 colon | HCT-15 colon | HL-60(TB) leukemia | HOP-18 NSCLC | HOP-62 NSCLC | HOP-92 NSCLC | HT29 colon | IGROV1 ovarian | K-562 leukemia | LOX IMVI melanoma | LXFL 529 NSCLC | M14 melanoma | M19-MEL melanoma | MALME-3M melanoma | MOLT-4 leukemia | NCI-H226 lung | NCI-H23 lung | NCI-H460 lung | OVCAR-3 ovarian | OVCAR-4 ovarian | OVCAR-5 ovarian | OVCAR-8 ovarian | RPMI-8226 leukemia | SF-268 CNS | SF-295 CNS | SK-MEL-28 melanoma | SK-MEL-5 melanoma | SK-OV-3 ovarian | SN12C renal | SNB-19 CNS | SR leukemia | SW-620 colon | TK-10 renal | U251 CNS | UACC-257 melanoma | UACC-62 melanoma | UO-31 renal
